# Patent US20260345590A1, “COMBINATIONS OF ESTROGEN RECEPTOR DEGRADERS AND AKT INHIBITORS” (Arvinas Operations, Inc., priority 2023, published 2026)
# Legend:
# [1] = test system: AKT isoforms; conditions: cited from earlier work
# [2] = test system: MCF7 cells; experiment: Dose-Response Matrix Assay (cell viability, Cell-Titer Glo, Combenefit synergy analysis); type: cell-based; conditions: 8-point curve 100 to 0.046 nM, Day 5
# Procedure: Cells were seeded at 2×10^3 cells in 200 μl of media per well in 96 well plates and incubated overnight at 37 °C. […] At Day 5 cell viability was measured using Cell-Titer Glo and CTG data were analyzed with the Combenefit Software (5).
# [3] = Biopharmaceutics Classification System classification; type: physicochemical; conditions: BCS Class IV
# [4] = exposure of epimer Compound C relative to Compound A (preclinical data); type: in vivo
# [5] = biological target: T1, ER (Homo sapiens, UniProt P03372); experiment: degradation of the ER
# T1 construct: cells or constructs not described in excerpts
# T1 sequence (P03372 1-595): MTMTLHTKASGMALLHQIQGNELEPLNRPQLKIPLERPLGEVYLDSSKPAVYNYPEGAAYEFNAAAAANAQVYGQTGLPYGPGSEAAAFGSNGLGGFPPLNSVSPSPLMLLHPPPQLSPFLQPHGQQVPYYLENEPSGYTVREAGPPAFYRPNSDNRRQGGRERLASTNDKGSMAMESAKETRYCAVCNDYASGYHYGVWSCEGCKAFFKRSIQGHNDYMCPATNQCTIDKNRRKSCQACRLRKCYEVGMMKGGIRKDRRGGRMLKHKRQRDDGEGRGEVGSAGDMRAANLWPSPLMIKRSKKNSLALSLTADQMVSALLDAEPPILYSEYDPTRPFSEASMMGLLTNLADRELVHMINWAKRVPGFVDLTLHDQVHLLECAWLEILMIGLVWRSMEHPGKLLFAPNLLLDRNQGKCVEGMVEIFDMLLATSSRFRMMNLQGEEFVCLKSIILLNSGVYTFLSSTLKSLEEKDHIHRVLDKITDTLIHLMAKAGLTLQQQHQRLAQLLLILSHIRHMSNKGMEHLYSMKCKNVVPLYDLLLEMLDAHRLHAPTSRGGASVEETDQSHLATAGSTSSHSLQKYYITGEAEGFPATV
structure (smiles),measurement,setting,value
"Cn1ncc(Cl)c1-c1cc(C(=O)N[C@H](CN)Cc2cccc(F)c2)sc1Cl [Afuresertib, N-[(2S)-1-amino-3-(3-fluorophenyl)propan-2-yl]-5-chloro-4-(4-chloro-2-methyl-3-pyrazolyl)-2-thiophenecarboxamide]",mode of AKT kinase inhibition,[1],"reversible, ATP-competitive"
same,pan-AKT kinase inhibition potency,"[1]; reversible, ATP-competitive",low-nanomolar
"NC1(C(=O)N[C@@H](CCO)c2ccc(Cl)cc2)CCN(c2ncnc3[nH]ccc23)CC1 [Capivasertib, 4-amino-N-[(1S)-1-(4-chlorophenyl)-3-hydroxypropyl]-1-(7H-pyrrolo[2,3-d]pyrimidin-4-yl)piperidine-4-carboxamide]",binding to and inhibition of AKT isoforms,[1],binds to and inhibits all AKT isoforms
"O=C1CC[C@H](N2Cc3cc(N4CCN(CC5CCN(c6ccc([C@@H]7c8ccc(O)cc8CC[C@@H]7c7ccccc7)cc6)CC5)CC4)ccc3C2=O)C(=O)N1 [Compound A, (S)-3-(5-(4-((1-(4-((1R,2S)-6-hydroxy-2-phenyl-1,2,3,4-tetrahydronaphthalen-1-yl)phenyl)piperidin-4-yl)methyl)piperazin-1-yl)-1-oxoisoindolin-2-yl)piperidine-2,6-dione]",synergy on cell viability,[2]; combination with afuresertib,evidence of synergy
same,synergy on cell viability,[2]; combination with capivasertib,evidence of synergy
same,permeability,[3],low permeability
same,solubility,[3],low solubility
O=C1CC[C@@H](N2Cc3cc(N4CCN(CC5CCN(c6ccc([C@@H]7c8ccc(O)cc8CC[C@@H]7c7ccccc7)cc6)CC5)CC4)ccc3C2=O)C(=O)N1 [Compound C],exposure of Compound C compared to Compound A,[4],< 26%
same,degradation of the ER,[5],does not degrade the ER
